Source: patent US20260374766A1, “METHODS FOR TREATING CANCER” (Antares Therapeutics, Inc., priority 2022, published 2026)
Where two headings read alike, the source gives them in different places.

Key:
[1] = target: T1, p53 Y220C mutant protein (amino acid residues 94-293) (Homo sapiens, UniProt P04637, Y220C); assay: Surface Plasmon Resonance (SPR) assay, Kd_kinetic; assay type: binding; settings: SPR, p53 Y220C, read-out: SPR P53 Y220C KD kinetic
T1 construct: p53 Y220C mutant protein (amino acid residues 94-293)
Method in brief: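 Biacore 8K SPR; 16 or 20 °C; Tris 50 mM pH 7.5, NaCl 100 mM, DTT 1 mM, Brij35 0.01%, Tween-20 0.05%, DMSO 1%. Kd_kinetic by 1:1 fit.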

[2] = target: T1, p53 Y220C mutant protein (amino acid residues 94-293); assay: Thermal Shift Assay (TSA), dTM; assay type: binding; settings: for ΔTm at 100 µM: 100 uM compound; for ΔTm at 10 µM: 10 uM compound
Method in brief: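 First, the mutant DNA-binding domain (5 μM) was preincubated 3 hours at 20 °C with compound at 10 μM or 100 μM. Next, the sample was heated from 30 °C to 50 °C at 0.03 °C/second in the presence of Sypro Orange. Finally, TM was obtained from a two-state Boltzmann fit.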

p53 Y220C = p53 Y220C (Homo sapiens, UniProt P04637, Y220C); assay: Luciferase Reporter Assay (Luc), p53 response element, NClH1299 cells with inducible p53 Y220C; assay type: cell-based; settings: luciferase reporter, NClH1299 inducible p53 Y220C, 6 hour; for AC50: read-out: Luc P53 Y220C AC50
Method in brief: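 Luciferase activity is measured directly after One-Glo addition and a 5-minute room-temperature shake. Before that, cells plated at 5,000 per well receive doxycycline at 0.5 ug/mL for 24 hours, followed by compound for 6 hours.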

NUGC3 p53 Y220C = assay: Cell Proliferation Assay (CellTiter-Glo, CTG), NUGC3 p53 Y220C; assay type: cell-based; settings: Homo sapiens, NUGC-3, 120 h, CellTiter-Glo, 5 days
Method in brief: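 Tet-One inducible p53 Y220C or R273H constructs were stably introduced into NCI-H1299 by lentiviral transduction; NUGC3 was used as is. Cells (250-500 per well) were exposed to compound for 5 days, then CellTiter-Glo was added for 10 min at room temperature and IC50 was calculated from luminescence.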

H1299 p53 Y220C = assay: Cell Proliferation Assay (CellTiter-Glo, CTG), H1299 p53 Y220C (NClH1299-inducible p53 Y220C); assay type: cell-based; settings: Homo sapiens, NCI-H1299, 120 h, CellTiter-Glo, 5 days
Method in brief: (§1)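 NClH1299 lines stably transduced with Tet-inducible p53 Y220C or R273H, plus NUGC3, were treated with compound for 5 days at 250-500 cells/well. IC50 derived from CellTiter-Glo luminescent signal after 10 min room-temperature incubation.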

H1299 p53 R273H = assay: Cell Proliferation Assay (CellTiter-Glo, CTG), H1299 p53 R273H (NClH1299-inducible p53 R273H); assay type: cell-based; settings: Homo sapiens, NCI-H1299, 120 h, CellTiter-Glo, 5 days
Method in brief: as §1

[3] = thermal shift, read-out: TSA P53 Y220C dTM (100 uM)
[4] = 10 uM tool compound as positive control
[5] = p53 Y220C, read-out: TSA P53 Y220C dTM
[6] = NClH1299-inducible p53 Y220C cells
[7] = NClH1299-inducible p53 R273H cells
[8] = thermal shift, read-out: TSA P53 Y220C dTM (10 uM)

Row | Compound | Kd ([1]; kinetic KD) [nM] | ΔTm at 100 µM [2, 3] [°C] | Emax (p53 Y220C; [4]) [%] | AC50 (p53 Y220C) [nM] | IC50 (NUGC3 p53 Y220C; NUGC3 p53 Y220C) [nM] | IC50 (H1299 p53 Y220C; H1299 p53 Y220C) [nM] | IC50 (H1299 p53 R273H; H1299 p53 R273H) [nM] | Kd [1] [nM] | ΔTm at 10 µM [2, 5] [°C] | AC50 (p53 Y220C; AC50) [nM] | Emax (p53 Y220C; Emax) [%] | IC50 (NUGC3 p53 Y220C; NUGC3 cells) [nM] | IC50 (H1299 p53 Y220C; [6]) [nM] | IC50 (H1299 p53 R273H; [7]) [nM] | ΔTm at 10 µM [2, 8] [°C] | ΔTm at 100 µM [2, 5] [°C]
1 | COc1cc(C(=O)N(C)C)ccc1NCC#Cc1nc2c(N[C@@H]3CCN(C)C[C@@H]3F)cccn2c1CC(F)(F)F [Example 46, 4-{[3-(8-{[(3S,4R)-3-fluoro-1-methylpiperidin-4-yl]amino}-3-(2,2,2-trifluoroethyl)imidazo[1,2-a]pyridin-2-yl)prop-2-yn-1-yl]amino}-3-methoxy-N,N-dimethylbenzamide] | < 10 | ≥ 10 | 70 to 80 | 1500 to 3000 | 1500 to 3000 | 750 to 1500 | ≥ 10000 |  |  |  |  |  |  |  |  | 
2 | CNC(=O)c1ccc(OC)c(NCC#Cc2cc3c(N[C@@H]4CCN(CC#N)C[C@@H]4F)nccn3c2SC(F)(F)F)c1 [Example 353] |  |  |  |  |  |  |  | < 10 | ≥ 10 | < 750 | > 90 | < 750 | < 750 | ≥ 10000 |  | 
3 | COc1cc(S(C)(=O)=O)ccc1NCC#Cc1nc2c(NC3CCOCC3)cccn2c1CC(F)(F)F [Example 3, 2-{3-[(4-methanesulfonyl-2-methoxyphenyl)amino]prop-1-yn-1-yl}-N-(oxan-4-yl)-3-(2,2,2-trifluoroethyl)imidazo[1,2-a]pyridin-8-amine] | 10 to 100 | ≥ 10 | 70 to 80 | 1500 to 3000 | > 3000 | 1500 to 3000 | ≥ 10000 |  |  |  |  |  |  |  |  | 
4 | CCNC(=O)c1cnc(OC)c(NCC#Cc2nc3c(N[C@@H]4CCN(C)C[C@@H]4F)cccn3c2SC(F)(F)F)c1 [Example 293] |  |  |  |  |  |  |  | < 10 | ≥ 10 | < 750 | 80 to 90 | < 750 | < 750 | ≥ 10000 |  | 
5 | CNC(=O)c1ccc(NCC#Cc2nc3c(N[C@@H]4CCNC[C@@H]4F)cccn3c2SC(F)(F)F)c(OC)c1 [Example 100, 4-{[3-(8-{[(3S,4R)-3-fluoropiperidin-4-yl]amino}-3-[(trifluoromethyl)sulfanyl]imidazo[1,2-a]pyridin-2-yl)prop-2-yn-1-yl]amino}-3-methoxy-N-methylbenzamide] | < 10 | ≥ 10 | 80 to 90 | < 750 | < 750 | < 750 | 5000 to 8000 |  |  |  |  |  |  |  | ≥ 10 | 
6 | COc1cc(C(=O)N2CCCC2)ccc1NCC#Cc1nc2c(N[C@@H]3CCN(C)C[C@@H]3F)cccn2c1CC(F)(F)F [Example 50, (3S,4R)-3-fluoro-N-[2-(3-{[2-methoxy-4-(pyrrolidine-1-carbonyl)phenyl]amino}prop-1-yn-1-yl)-3-(2,2,2-trifluoroethyl)imidazo[1,2-a]pyridin-8-yl]-1-methylpiperidin-4-amine] | 10 to 100 | ≥ 10 | < 70 | 750 to 1500 | 750 to 1500 | 750 to 1500 | ≥ 10000 |  |  |  |  |  |  |  |  | 
7 | CNC(=O)c1cc(F)c(OC)c(NCC#Cc2nc3c(N[C@@H]4CCN(C)C[C@@H]4F)nccn3c2SC(F)(F)F)c1 [Example 347] |  |  |  |  |  |  |  | < 10 | ≥ 10 | < 750 | > 90 | < 750 | < 750 | ≥ 10000 |  | 
8 | CNC(=O)c1ccc(NCC#Cc2nn3c(N[C@@H]4CCN(C)C[C@@H]4F)cccc3c2SC(F)(F)F)c(OC)c1 [Example 223, 4-{[3-(7-{[(3S,4R)-3-fluoro-1-methylpiperidin-4-yl]amino}-3-[(trifluoromethyl)sulfanyl]pyrazolo[1,5-a]pyridin-2-yl)prop-2-yn-1-yl]amino}-3-methoxy-N-methylbenzamide] |  |  |  |  |  |  |  | < 10 | ≥ 10 | < 750 | 80 to 90 | < 750 | < 750 | ≥ 10000 |  | ≥ 10
9 | CNC(=O)c1ccc(OC)c(NCC#Cc2nn3c(N[C@@H]4CN(C)C[C@@H]4F)cccc3c2SC(F)(F)F)c1 [Example 252] |  |  |  |  |  |  |  | < 10 | ≥ 10 | < 750 | 80 to 90 | < 750 | < 750 | ≥ 10000 |  | 
10 | CNC(=O)c1ccc(OC)c(NCC#Cc2cc3c(N[C@@H]4CCN(C)C[C@@H]4F)cccn3c2SC(F)(F)F)c1 [Example 124, 3-{[3-(8-{[(3S,4R)-3-fluoro-1-methylpiperidin-4-yl]amino}-3-[(trifluoromethyl)sulfanyl]indolizin-2-yl)prop-2-yn-1-yl]amino}-4-methoxy-N-methylbenzamide] | < 10 |  | > 90 | < 750 | < 750 | < 750 | 5000 to 8000 |  |  |  |  |  |  |  | ≥ 10 | 
11 | CNC(=O)c1ccc(NCC#Cc2nc3c(NC4CCOCC4)cccn3c2SC(F)(F)F)c(OC)c1 [Example 241] |  |  |  |  |  |  |  | 10 to 100 | 5 to 10 | < 750 | 80 to 90 | < 750 | < 750 | 5000 to 8000 |  | ≥ 10
12 | COc1cc(S(C)(=O)=O)ccc1NCC#Cc1nc2c(NC3CCN(C4CC4)CC3)cccn2c1CC(F)(F)F [Example 7, 1-cyclopropyl-N-(2-{3-[(4-methanesulfonyl-2-methoxyphenyl)amino]prop-1-yn-1-yl}-3-(2,2,2-trifluoroethyl)imidazo[1,2-a]pyridin-8-yl)piperidin-4-amine] | 10 to 100 | 5 to 10 | < 70 | > 3000 | 1500 to 3000 | 1500 to 3000 | 5000 to 8000 |  |  |  |  |  |  |  |  | 
13 | CNC(=O)c1ccc(OC)c(NCC#Cc2nn3c(N[C@@H]4CN(C)C[C@@H]4F)cccc3c2SC(F)(F)F)n1 [Example 253] |  |  |  |  |  |  |  | < 10 | ≥ 10 | < 750 | 80 to 90 | < 750 | < 750 | ≥ 10000 |  | 
14 | CNC(=O)c1ccc(NCC#Cc2nc3c(N[C@@H]4CN(C)C[C@@H]4F)cccn3c2SC(F)(F)F)c(OC)c1 [Example 103, 4-{[3-(8-{[(3R,4S)-4-fluoro-1-methylpyrrolidin-3-yl]amino}-3-[(trifluoromethyl)sulfanyl]imidazo[1,2-a]pyridin-2-yl)prop-2-yn-1-yl]amino}-3-methoxy-N-methylbenzamide] | < 10 | ≥ 10 | 80 to 90 | < 750 | < 750 | < 750 | ≥ 10000 |  |  |  |  |  |  |  | ≥ 10 | 
15 | CNC(=O)c1ccc(NCC#Cc2nc3c(N[C@@H]4C[C@@H]5COC[C@H]([C@@H]4F)N5C)cccn3c2SC(F)(F)F)c(OC)c1 [Example 283] |  |  |  |  |  |  |  | < 10 | ≥ 10 | < 750 | 80 to 90 | < 750 | < 750 | ≥ 10000 |  | 
16 | CNC(=O)c1ccc(NCC#Cc2nc3c(N[C@H]4CCN(C)CC4(F)F)cccn3c2CC(F)(F)F)c(OC)c1 (single isomer, unassigned) [Example 38] | > 1000 | 5 to 10 | < 70 | > 3000 | > 3000 | > 3000 | ≥ 10000 |  |  |  |  |  |  |  |  | 
17 | COc1ccc(C(=O)NC[C@H](C)O)cc1NCC#Cc1cc2c(N[C@@H]3CCN(C)C[C@@H]3F)nccn2c1SC(F)(F)F [Example 358] |  |  |  |  |  |  |  | < 10 | ≥ 10 | < 750 | > 90 | < 750 | < 750 | ≥ 10000 |  | 
